Source: patent US6171809A, “Method and compositions for detecting luciferase biological samples” (priority 1998, dated 2001)
Where no end group is shown, it is not given here.

Columns and labels:
[1] = target: T1, human beta-2 adrenoceptor (Homo sapiens, UniProt P07550); experiment: Compound screening, renilla luciferase readout, CRE/firefly/V2 and CRE/ren/beta2 cells, beta2-adrenoceptor, Example 3; assay type: cell-based
T1 construct: expressed in transfected cells; host or cells: CHO (Chinese hamster ovary) cells stably carrying a CRE-renilla luciferase reporter
Procedure: (§1) Stable mammalian cell lines transfected with c-AMP responsive reporter genes containing either the firefly or renilla luciferase reporter proteins (CRE-firefly and CRE-ren) were generated.
(§2) These receptors are members of the super family of G-protein coupled receptors which interact with the stimulatory G-protein alpha unit.
Firefly luciferase and/or renilla luciferase producing CHO (Chinese hamster ovary) cells are cultured in tissue culture flasks and grown to 90% confluency. Twenty-four hours before the assay, the cells are quiesced in serum-free medium containing 1 mg/ml BSA (bovine serum albumin). Immediately prior to the assay, cells are removed with HBSS/EDTA (Hanks balanced salt solution containing EDTA), centrifuged and resuspended in 10 ml phenol red-free and serum-free medium supplemented with 1 mg/ml BSA. Next, the cells are plated into a 96 well microtiter plate at 90 μl/well and returned to the incubator. After 1 hour, 10 μl of the test compound, made up in either water or phenol red-free medium, is added. The microplates then are further incubated for 4 hours. Finally, the firefly luciferase detection reagent is made up and 100 μl of this detection solution is added to each well. After 10 minutes, the microplate is counted for firefly luciferase activity. […] The plate is left for 15 minutes in the dark and then counted for renilla luciferase activity. […]

adenylcyclase [2] = experiment: Forskolin dose response, renilla luciferase reporter (CRE-ren CHO cells mixed with CRE-firefly cells), Example 1; assay type: cell-based, Chinese hamster ovary
Procedure: A kit for the sequential detection of firefly luciferase and renilla luciferase was prepared which consisted of a firefly luciferase assay reagent and a renilla luciferase assay reagent. The renilla luciferase reagent consisted of 5 μM of coelenterazine in 2 mM EDTA buffer with a pH 7.5. Stable mammalian cell lines transfected with c-AMP responsive reporter genes containing either the firefly or renilla luciferase reporter proteins (CRE-firefly and CRE-ren) were generated. Firefly luciferase and/or renilla luciferase producing CHO (Chinese hamster ovary) cells are cultured in tissue culture flasks and grown to 90% confluency. Twenty-four hours before the assay, the cells are quiesced in serum-free medium containing 1 mg/ml BSA (bovine serum albumin). Immediately prior to the assay, cells are removed with HBSS/EDTA (Hanks balanced salt solution containing EDTA), centrifuged and resuspended in 10 ml phenol red-free and serum-free medium supplemented with 1 mg/ml BSA. Next, the cells are plated into a 96 well microtiter plate at 90 μl/well and returned to the incubator. After 1 hour, 10 μl of the test compound, made up in either water or phenol red-free medium, is added. The microplates then are further incubated for 4 hours. Finally, the firefly luciferase detection reagent is made up and 100 μl of this detection solution is added to each well. After 10 minutes, the microplate is counted for firefly luciferase activity. Next, to each well, 100 μl/well of 5 μM of coelenterazine in 2 mM EDTA buffer solution is added. The plate is left for 15 minutes in the dark and then counted for renilla luciferase activity. CRE-ren cells were stimulated with 10 μM forskolin, a compound which directly activates adenylcyclase to cause an increase in the level of […] cAMP. […] The assay plates were counted in a TopCount™ Luminescence Counter (Packard Instrument Company) at 15 or 160 minutes after reagent addition. […] Furthermore, renilla luminescence generated using the composition of this invention, is 10-fold brighter than the firefly luciferase generated light signal.

adenylcyclase [3] = experiment: Forskolin dose response, firefly luciferase reporter (CRE-firefly CHO cells mixed with CRE-ren cells), Example 1; assay type: cell-based, Chinese hamster ovary; conditions: 15 and 160 minutes after reagent addition; FIG. 1
Procedure: A kit for the sequential detection of firefly luciferase and renilla luciferase was prepared which consisted of a firefly luciferase assay reagent and a renilla luciferase assay reagent. The firefly luciferase reagent consisted of AMP, EDTA, firefly luciferin, ATP, DTT, phenylacetic acid and oxalic acid as originally described in U.S. Pat. No. 5,618,682. Stable mammalian cell lines transfected with c-AMP responsive reporter genes containing either the firefly or renilla luciferase reporter proteins (CRE-firefly and CRE-ren) were generated. Firefly luciferase and/or renilla luciferase producing CHO (Chinese hamster ovary) cells are cultured in tissue culture flasks and grown to 90% confluency. Twenty-four hours before the assay, the cells are quiesced in serum-free medium containing 1 mg/ml BSA (bovine serum albumin). […] After 10 minutes, the microplate is counted for firefly luciferase activity. […] The plate is left for 15 minutes in the dark and then counted for renilla luciferase activity. […] The assay plates were counted in a TopCount™ Luminescence Counter (Packard Instrument Company) at 15 or 160 minutes after reagent addition. […] Furthermore, renilla luminescence generated using the composition of this invention, is 10-fold brighter than the firefly luciferase generated light signal.

CHO cells = experiment: Compound screening, endogenous response of CHO cells (CRE/firefly/V2 and CRE/ren/beta2), Example 3; assay type: cell-based, Chinese hamster ovary; conditions: for firefly luciferase response (endogenous): firefly luciferase detection reagent; for agonist activity at these cells: CRE/firefly/V2 and CRE/ren/beta2 cells
Procedure: as §1, §2
Firefly luciferase and/or renilla luciferase producing CHO (Chinese hamster ovary) cells are cultured in tissue culture flasks and grown to 90% confluency. Twenty-four hours before the assay, the cells are quiesced in serum-free medium containing 1 mg/ml BSA (bovine serum albumin). Immediately prior to the assay, cells are removed with HBSS/EDTA (Hanks balanced salt solution containing EDTA), centrifuged and resuspended in 10 ml phenol red-free and serum-free medium supplemented with 1 mg/ml BSA. Next, the cells are plated into a 96 well microtiter plate at 90 μl/well and returned to the incubator. After 1 hour, 10 μl of the test compound, made up in either water or phenol red-free medium, is added. The microplates then are further incubated for 4 hours. Finally, the firefly luciferase detection reagent is made up and 100 μl of this detection solution is added to each well. After 10 minutes, the microplate is counted for firefly luciferase activity. Next, to each well, 100 μl/well of 5 μM of coelenterazine in 2 mM EDTA buffer solution is added. The plate is left for 15 minutes in the dark and then counted for renilla luciferase activity.
CRE/firefly/V2 and CRE/ren/beta2 cells were mixed and plated into individual wells of a black 96-well ViewPlate and a range of compounds were applied to the cells.

[4] = target: T1, human beta-2 adrenoceptor; experiment: beta2-adrenoceptor dose response, renilla luciferase readout after renilla detection reagent (CRE/ren/beta2 cells mixed with CRE/firefly/V2 cells), Example 2; assay type: cell-based
Procedure: as §1, §2
Firefly luciferase and/or renilla luciferase producing CHO (Chinese hamster ovary) cells are cultured in tissue culture flasks and grown to 90% confluency. Twenty-four hours before the assay, the cells are quiesced in serum-free medium containing 1 mg/ml BSA (bovine serum albumin). Immediately prior to the assay, cells are removed with HBSS/EDTA (Hanks balanced salt solution containing EDTA), centrifuged and resuspended in 10 ml phenol red-free and serum-free medium supplemented with 1 mg/ml BSA. Next, the cells are plated into a 96 well microtiter plate at 90 μl/well and returned to the incubator. After 1 hour, 10 μl of the test compound, made up in either water or phenol red-free medium, is added. The microplates then are further incubated for 4 hours. Finally, the firefly luciferase detection reagent is made up and 100 μl of this detection solution is added to each well. After 10 minutes, the microplate is counted for firefly luciferase activity. […] The plate is left for 15 minutes in the dark and then counted for renilla luciferase activity.

T1 sequence (P07550 whole entry): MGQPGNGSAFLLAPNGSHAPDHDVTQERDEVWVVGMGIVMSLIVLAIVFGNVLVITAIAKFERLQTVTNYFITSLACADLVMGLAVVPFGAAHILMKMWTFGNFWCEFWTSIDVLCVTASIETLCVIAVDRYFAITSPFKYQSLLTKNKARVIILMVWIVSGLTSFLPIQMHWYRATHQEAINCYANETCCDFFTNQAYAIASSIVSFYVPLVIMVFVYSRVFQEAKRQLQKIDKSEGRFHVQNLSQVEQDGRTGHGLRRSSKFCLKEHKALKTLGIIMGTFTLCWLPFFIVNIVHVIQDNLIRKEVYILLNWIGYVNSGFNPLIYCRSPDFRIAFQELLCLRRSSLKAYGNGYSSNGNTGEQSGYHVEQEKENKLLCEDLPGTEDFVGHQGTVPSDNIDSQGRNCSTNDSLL

Molecule	luminescence signal following addition of renilla luciferase detection reagent [1]	action on CHO cells (conclusion) (CHO cells)	firefly luciferase response (endogenous) (CHO cells)	luminescent signal following addition of renilla luciferase detection reagent (endogenous) (CHO cells)	agonist activity at these cells (CHO cells)	other results
NC(=O)CC[C@@H]1NC(=O)[C@H](Cc2ccccc2)NC(=O)[C@H](Cc2ccc(O)cc2)NC(=O)CCSSC[C@@H](C(=O)N2CCC[C@H]2C(=O)N[C@H](CCCN=C(N)N)C(=O)NCC(N)=O)NC(=O)[C@H](CC(N)=O)NC1=O [desmopressin]	not significantly above basal					
C=C[C@@]1(C)CC(=O)[C@]2(O)[C@@]3(C)[C@@H](O)CCC(C)(C)[C@@H]3[C@H](O)[C@H](OC(C)=O)[C@@]2(C)O1 [forskolin]		act on CHO cells to generate an endogenous response	a firefly luciferase response was obtained	A luminescent signal was maintained		renilla luciferase luminometric response (adenylcyclase [2]; 15 minutes after reagent addition): 3.5×10^6; renilla luciferase luminometric response (adenylcyclase [2]; 160 minutes after reagent addition): 1.8×10^6; EC50 for forskolin stimulation of adenyl cyclase (adenylcyclase [2]; renilla response, 15 versus 160 minutes): remains similar; nature of the firefly luminescence (adenylcyclase [3]): identical at 15 and 160 minutes after reagent addition
CC(C)C[C@H](NC(=O)[C@H](CCCCN)NC(=O)[C@H](CCCN=C(N)N)NC(=O)[C@H](C)NC(=O)[C@H](CO)NC(=O)[C@H](CCCCN)NC(=O)[C@H](CCCN=C(N)N)NC(=O)[C@H](C)NC(=O)CNC(=O)[C@@H](NC(=O)[C@H](Cc1ccccc1)NC(=O)CNC(=O)CNC(=O)[C@@H](N)Cc1ccccc1)[C@@H](C)O)C(=O)N[C@@H](C)C(=O)N[C@@H](CC(N)=O)C(=O)N[C@@H](CCC(N)=O)C(=O)O [nociceptin]					not agonists active at these cells	
NCCc1c[nH]c2ccc(O)cc12 [serotonin]					not agonists active at these cells	
NC(=O)CC[C@@H]1NC(=O)[C@H](Cc2ccccc2)NC(=O)[C@H](Cc2ccc(O)cc2)NC(=O)[C@@H](N)CSSC[C@@H](C(=O)N2CCC[C@H]2C(=O)N[C@@H](CCCN=C(N)N)C(=O)NCC(N)=O)NC(=O)[C@H](CC(N)=O)NC1=O [vasopressin]	not significantly above basal					stimulation of renilla luminescence ([4]; FIG. 2): did not stimulate renilla luminescence; response curve after subsequent addition of renilla detection reagent ([4]; renilla detection reagent added to the same cells): flattened
thyro-calcitonin (CGNLSTCMLGTYTQDFNKFHTFPQTAIGVGAP; ends and bridges not checked; cysteine pairing not given here; UniProt P01258 85-116, looked up) [CHO cells express an endogenous calcitonin receptor]		act on CHO cells to generate an endogenous response	a firefly luciferase response was obtained	A luminescent signal was maintained		
